Source: patent US20260265304A1, “PEPTIDE INHIBITORS OF FOCAL ADHESION KINASE ACTIVITY AND USES THEREOF” (Arizona Board of Regents on Behalf of the University of …, priority 2019, published 2026)
Values joined by “and” are separate entries in the source; they are usually repeats but may differ in a detail not shown here. Equal values may be shown once. Read-outs that look alike come from different tables or passages of the source. Positions of bridges follow the written chain, without caps; N, C: chain ends. Non-standard residues stand in square brackets, D forms with d. Residues, ends and D or L forms follow the SMILES beside them. *: point of attachment. Myristoyl = CCCCCCCCCCCCCC(=O)*; R8 = C=CCCCCCC[C@@](C)(N)C(=O)O; R5 = C=CCCC[C@@](C)(N)C(=O)O; S5 = C=CCCC[C@](C)(N)C(=O)O

Columns and labels:
[1] = biological target: T1, FAK FAT domain (biotinylated Avitag-FAT protein) (Homo sapiens, UniProt Q05397); assay: Surface plasmon resonance (SPR) binding to immobilised FAT protein; conditions: for Kd: FAT protein immobilised, peptide 200 μM-0.01 μM, 1:1 binding model; for binding and inhibitory properties (SPR/FP) in words, compared to 1907: SAR discussion of SPR and FP data
T1 construct: biotinylated Avitag-FAT protein was diluted in running buffer
T1 sequence (Q05397 914-1045 limits assumed): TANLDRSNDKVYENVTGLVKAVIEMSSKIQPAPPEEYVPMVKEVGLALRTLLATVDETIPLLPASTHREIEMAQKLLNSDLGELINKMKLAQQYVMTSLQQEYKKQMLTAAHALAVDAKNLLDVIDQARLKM
Description: SPR binding studies were performed on a ForteBio Pioneer FE SPR system. In brief, a SADH Streptavidin in Dextran Hydrogel biosensor (ForteBio) was docked onto the flow cell and preconditioned with two injections of 10 mM NaOH, 1 M NaCl for 1 min at 50 μL/min. […] Empty channel 2 served as the reference control. After achieving a stable baseline, a concentration series (200 μM-0.01 μM) of peptide was prepared in final running buffer (100 mM Tris-HCl, 200 mM NaCl, 0.05% Tween-20, 5% DMSO) and injected using the OneStep gradient injection method at a flow rate of 75 μL/min. […] Raw SPR data were appropriately processed in Qdat software (ForteBio) by normalizing the baseline prior to injection, aligning the channels, subtraction of the reference channel, and blank subtraction. Kinetic data were fitted to a pseudo-first order 1:1 interaction binding model using to calculate KD. In addition, a steady-state model and Req data points were used to validate the binding affinity. Visual inspection of the SPR sensograms was performed to verify appropriate model fitting, lack of mass transport effects, return to baseline, and lack of irregular kinetics.

[2] = biological target: T2, FAK FAT domain (paxillin-FAT binding) (Homo sapiens, UniProt Q05397); assay: Competition fluorescence polarization (FP) assay, inhibition of TAMRA-LD2 binding to FAT; conditions: read-out: FP Ki
T2 construct: FP Buffer containing 20 μM FAT and 0.1 μM TAMRA-LD2
T2 sequence (Q05397 914-1045 limits assumed): T1 sequence (Q05397 914-1045 limits assumed)
Description: The FP assay buffer used was 20 mM Tris, 200 mM NaCl, 0.05% β-me, 0.1% Triton X-100, 5% glycerol, and 1× Halt protease inhibitor cocktail. […] Bodipy TMR FP optical module (2100-4100) was used as the mirror.
Wells with no FAT were used as a baseline value which was subtracted from the raw values to produce ΔmP values. The plate was read at every hour for four hours to test for time differences in IC50. The titration data was processed through GraphPad Prism to produce a dose response curve and a calculated IC50 with standard error (SE). A four-parameter dose-response inhibition model was utilized and the bottom fit was constrained to the lower plateau of the curve. Ki was determined from the following calculation:
P0 is the concentration of free protein and KD is calculated from the saturation curve. 150 is calculated by the following equation:
where PT is the total protein concentration, LT is the total labeled-ligand concentration, P0 is the positive root of P0^2+(KD+LT)*P0−PT, PL0=P−P0, PL50=PL0/2, L0=LT-PL0, and L50=LT-PL50.

Compound	Kd ([1]; read-out: SPR KD)	binding and inhibitory properties (SPR/FP) in words, compared to 1907 [1]	Ki [2] [µM]	Kd ([1]; SPR KD) [µM]
CC(=O)N[C@@H](CO)C(=O)N[C@@H](C)C(=O)N[C@H](C(=O)N[C@@H](CCCNC(=N)N)C(=O)N[C@@H](CCC(=O)O)C(=O)N[C@@]1(C)CCCC=CCCC[C@@](C)(C(=O)N[C@@H](C)C(=O)N[C@@H](CO)C(=O)N[C@@H](CC(C)C)C(=O)N[C@@H](CO)C(=O)N[C@@H](CC(=O)O)C(N)=O)NC(=O)[C@H](CC(C)C)NC(=O)[C@H](CCC(=O)O)NC(=O)[C@H](CC(=O)O)NC1=O)[C@@H](C)O [Peptide 1917, Ac-SATRES5DELS5ASLSD-NH2] (Ac-SATRE[S5]DEL[S5]ASLSD-NH2; staple 6-10)	4.9 µM	similar, albeit lower activity than LD2-derived 1907	6.72	–
CC(=O)N[C@]1(C)CCCCCCC=CCCC[C@@](C)(C(N)=O)NC(=O)[C@H](CC(C)C)NC(=O)[C@H](CC(C)C)NC(=O)[C@H](CCCNC(=N)N)NC(=O)[C@H](CC(=O)O)NC(=O)[C@H](CC(C)C)NC(=O)[C@H](CCC(=O)O)NC1=O [Peptide 2011, Ac-R8ELDRLLS5-NH2] (Ac-[R8]ELDRLL[S5]-NH2; staple 1-8)	–	no binding and inhibitory properties	–	–
CC(=O)N[C@@H](CO)C(=O)N[C@@H](CC(C)C)C(=O)NCC(=O)N[C@@H](CO)C(=O)N[C@@H](CC(N)=O)C(=O)N[C@@H](CC(C)C)C(=O)N[C@]1(C)CCCCCCC=CCCC[C@@](C)(C(=O)N[C@@H](CCC(=O)O)C(=O)N[C@@H](CC(C)C)C(=O)N[C@@H](CC(N)=O)C(=O)N[C@@H](C)C(=O)N[C@H](C(=O)N[C@@H](CCC(N)=O)C(=O)N[C@@H](Cc2c[nH]cn2)C(N)=O)C(C)C)NC(=O)[C@H](CC(C)C)NC(=O)[C@H](CC(C)C)NC(=O)[C@H](CCCNC(=N)N)NC(=O)[C@H](CC(=O)O)NC(=O)[C@H](CC(C)C)NC(=O)[C@H](CCC(=O)O)NC1=O [Peptide 1920, Ac-SLGSNLR8ELDRLLS5ELNAVQH-NH2] (Ac-SLGSNL[R8]ELDRLL[S5]ELNAVQH-NH2; staple 7-14)	7 µM and 6.95 µM	–	25	–
CC(=O)N[C@@H](CC(N)=O)C(=O)N[C@@H](CC(C)C)C(=O)N[C@@H](CO)C(=O)N[C@@H](CCC(=O)O)C(=O)N[C@@H](CC(C)C)C(=O)N[C@@H](CC(=O)O)C(=O)N[C@@H](CCCNC(=N)N)C(=O)N[C@@H](CC(C)C)C(=O)N[C@]1(C)CCCC=CCCC[C@@](C)(C(=O)N[C@@H](CC(N)=O)C(N)=O)NC(=O)[C@H](CCC(=O)O)NC(=O)[C@H](CC(C)C)NC1=O [Peptide 1921] (Ac-NLSELDRL[R5]LE[S5]N-NH2; staple 9-12)	–	did not show much activity compared to 1907	492	–
CC(=O)N[C@@H](CC(N)=O)C(=O)N[C@@H](CC(C)C)C(=O)NC(C)(C)C(=O)N[C@@H](CCC(=O)O)C(=O)N[C@@H](CC(C)C)C(=O)N[C@@H](CC(=O)O)C(=O)N[C@@H](CCCNC(=N)N)C(=O)N[C@@H](CC(C)C)C(=O)N[C@@H](CC(C)C)C(=O)NC(C)(C)C(=O)N[C@@H](CCC(=O)O)C(=O)N[C@@H](CC(C)C)C(=O)N[C@@H](CC(N)=O)C(N)=O [Peptide 1912, Ac-NLAibELDRLLAibELN-NH2]	–	lower activity compared to 1907	–	–
CCCCCCCCCCCCCC(=O)NCCCC[C@@H]1NC(=O)[C@H](CC(=O)O)NC(=O)[C@H](CC(C)C)NC(=O)[C@H](CCC(=O)O)NC(=O)[C@](C)(NC(=O)[C@H](CC(C)C)NC(=O)[C@H](CC(N)=O)NC(C)=O)CCCCCCC=CCCC[C@@](C)(C(=O)N[C@@H](CCC(=O)O)C(=O)N[C@@H](CC(C)C)C(=O)N[C@@H](CC(N)=O)C(N)=O)NC(=O)[C@H](CC(C)C)NC(=O)[C@H](CC(C)C)NC1=O [Peptide 2029, Ac-NLR8ELDK(myristoyl)LLS5ELN-NH2] (Ac-NL[R8]ELDK(Myristoyl)LL[S5]ELN-NH2; staple 3-10)	–	–	–	19.5
CC(=O)N[C@@H](CC(N)=O)C(=O)N[C@@H](CC(C)C)C(=O)N[C@]1(C)CCCCCCC=CCCC[C@@](C)(C(=O)N[C@@H](CCC(=O)O)C(=O)N[C@@H](CCC(=O)O)C(=O)N[C@@H](CC(N)=O)C(N)=O)NC(=O)[C@H](CC(C)C)NC(=O)[C@H](CC(C)C)NC(=O)[C@H](CCCNC(=N)N)NC(=O)[C@H](CC(=O)O)NC(=O)[C@H](CCC(=O)O)NC(=O)[C@H](CCC(=O)O)NC1=O [Peptide 2014, Ac-NLR8EEDRLLS5EEN-NH2] (Ac-NL[R8]EEDRLL[S5]EEN-NH2; staple 3-10)	–	completely no binding and inhibitory properties	–	–

Now from value to compound, other results behind:

Kd ([1]; read-out: SPR KD)	Compound	binding and inhibitory properties (SPR/FP) in words, compared to 1907 [1]	Ki [2] [µM]	Kd ([1]; SPR KD) [µM]
> 200 µM	CC(=O)N[C@@H](CC(N)=O)C(=O)N[C@]1(C)CCCC=CCCC[C@@](C)(C(=O)N[C@@H](CC(=O)O)C(=O)N[C@@H](CCCNC(=N)N)C(=O)N[C@@H](CC(C)C)C(=O)N[C@@H](CC(C)C)C(=O)N[C@@H](CC(C)C)C(=O)N[C@@H](CCC(=O)O)C(=O)N[C@@H](CC(C)C)C(=O)N[C@@H](CC(N)=O)C(N)=O)NC(=O)[C@H](CCC(=O)O)NC(=O)[C@H](CO)NC1=O [Peptide 2024] (Ac-N[R5]SE[S5]DRLLLELN-NH2; staple 2-5)	did not show much activity compared to 1907	412	–
20.3 µM	CC(=O)N[C@@H](CC(N)=O)C(=O)N[C@]1(C)CCCCCCC=CCCC[C@@](C)(C(=O)N[C@@H](CC(C)C)C(=O)N[C@@H](CCC(=O)O)C(=O)N[C@@H](CC(C)C)C(=O)N[C@@H](CC(N)=O)C(N)=O)NC(=O)[C@H](CC(C)C)NC(=O)[C@H](CCCNC(=N)N)NC(=O)[C@H](CC(=O)O)NC(=O)[C@H](CC(C)C)NC(=O)[C@H](CCC(=O)O)NC(=O)[C@H](CO)NC1=O [Peptide 2017, Ac-NR8SELDRLS5LELN-NH2] (Ac-N[R8]SELDRL[S5]LELN-NH2; staple 2-9)	limited activity compared to 1907	80.6	–
911 µM	CC(=O)N[C@@H](CC(N)=O)C(=O)N[C@@H](CC(C)C)C(=O)N[C@@H](CO)C(=O)N[C@@H](CCC(=O)O)C(=O)N[C@]1(C)CCCC=CCCC[C@@](C)(C(=O)N[C@@H](CC(C)C)C(=O)N[C@@H](CC(C)C)C(=O)N[C@@H](CCC(=O)O)C(=O)N[C@@H](CC(C)C)C(=O)N[C@@H](CC(N)=O)C(N)=O)NC(=O)[C@H](CCCNC(=N)N)NC(=O)[C@H](CC(=O)O)NC1=O [Peptide 2022, Ac-NLSER5DRS5LLELN-NH2] (Ac-NLSE[R5]DR[S5]LLELN-NH2; staple 5-8)	did not show much activity compared to 1907	341	–
77.6 µM	CSCC[C@@H]1NC(=O)[C@H](Cc2ccccc2)NC(=O)[C@H](CCCNC(=N)N)NC(=O)[C@H](CC(C)C)NC(=O)[C@H](CCCNC(=N)N)NC(=O)[C@H](C)NC(=O)[C@](C)(NC(=O)[C@H](CCCNC(=N)N)NC(=O)[C@H](CCCNC(=N)N)NC(C)=O)CCCCCCC=CCCC[C@@](C)(C(=O)N[C@@H](CCC(N)=O)C(=O)N[C@@H](Cc2ccccc2)C(=O)N[C@@H](Cc2ccc(O)cc2)C(N)=O)NC1=O [Peptide 1929, Ac-RRR8ARLRFMS5QFY-NH2] (Ac-RR[R8]ARLRFM[S5]QFY-NH2; staple 3-10)	did not have comparable activity to LD2-derived 1907	> 1250	–
64.3 µM	CC(=O)N[C@@H](CC(N)=O)C(=O)N[C@@H](CC(C)C)C(=O)N[C@@H](CO)C(=O)N[C@@H](CCC(=O)O)C(=O)N[C@]1(C)CCCCCCC=CCCC[C@@](C)(C(=O)N[C@@H](CC(N)=O)C(N)=O)NC(=O)[C@H](CCC(=O)O)NC(=O)[C@H](CC(C)C)NC(=O)[C@H](CC(C)C)NC(=O)[C@H](CC(C)C)NC(=O)[C@H](CCCNC(=N)N)NC(=O)[C@H](CC(=O)O)NC1=O [Peptide 1914, Ac-NLSER8DRLLLES5N-NH2] (Ac-NLSE[R8]DRLLLE[S5]N-NH2; staple 5-12)	limited activity compared to 1907	–	–
> 200 µM	CC(=O)N[C@@H](CC(N)=O)C(=O)N[C@@H](CC(C)C)C(=O)N[C@@H](CO)C(=O)N[C@]1(C)CCCCCCC=CCCC[C@@](C)(C(=O)N[C@@H](CC(C)C)C(=O)N[C@@H](CC(N)=O)C(N)=O)NC(=O)[C@H](CC(C)C)NC(=O)[C@H](CC(C)C)NC(=O)[C@H](CC(C)C)NC(=O)[C@H](CCCNC(=N)N)NC(=O)[C@H](CC(=O)O)NC(=O)[C@H](CC(C)C)NC1=O [Peptide 1905, Ac-NLSR8LDRLLLS5LN-NH2] (Ac-NLS[R8]LDRLLL[S5]LN-NH2; staple 4-11)	no binding and inhibitory properties	–	–
